The source of these data is paper PMC10790750, “A widespread methylotroph acyl-homoserine lactone synthase produces a new quorum sensing signal that regulates swarming in Methylobacterium fujisawaense” (mBio, 2023).

What all share (format): cell-based
One experiment deals with T1, MmaR (MmaRDSM5686) (Methylobacterium fujisawaense, UniProt A0ABR6DCX3).
T1 construct: gene GGQ91_003337; mmaR inserted in genome of Methylorubrum extorquens AWP227 (mlaR/mlaI deleted) under native mlaR promoter; reporter strain AWP370 with mmaI promoter-mScarlet
The experiment in a line: mScarlet reporter activation in M. extorquens AWP370.

The target in the next experiment is T2, Mrad2831_5763 (MmaI) (Methylobacterium radiotolerans, UniProt B1M2Q9).
T2 construct: heterologously expressed
T2 sequence (B1M2Q9 1-207): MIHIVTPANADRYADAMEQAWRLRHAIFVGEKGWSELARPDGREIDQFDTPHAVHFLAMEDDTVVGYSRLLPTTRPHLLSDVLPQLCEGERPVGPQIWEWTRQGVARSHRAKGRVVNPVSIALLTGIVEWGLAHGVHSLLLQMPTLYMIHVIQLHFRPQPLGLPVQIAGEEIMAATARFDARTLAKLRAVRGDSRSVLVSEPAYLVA
Put plainly: LC-MS/MS of culture extract after heterologous expression. The conditions noted are these: product identified by m/z, retention time and fragmentation.

The target of the next experiment is T3, MmaI (Ga0373204_3345) (Methylobacterium fujisawaense, UniProt A0ABR6DCY1).
T3 construct: gene GGQ91_003338; native expression in DSM5686; deletion mutant as control
The experiment in a line: LC-MS/MS, NMR of culture extract; deletion mutant control. The conditions noted are these: native strain grown on methanol.

Read-outs that look alike come from different tables or passages of the source.

T1 sequence (A0ABR6DCX3 entry or part of it): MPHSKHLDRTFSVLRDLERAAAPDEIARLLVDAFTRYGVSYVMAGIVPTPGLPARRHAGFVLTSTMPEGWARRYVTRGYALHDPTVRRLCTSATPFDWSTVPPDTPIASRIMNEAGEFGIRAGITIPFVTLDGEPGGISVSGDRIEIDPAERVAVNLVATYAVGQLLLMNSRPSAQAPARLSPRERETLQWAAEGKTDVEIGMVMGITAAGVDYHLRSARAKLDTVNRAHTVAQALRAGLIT
T3 sequence (A0ABR6DCY1 entry or part of it): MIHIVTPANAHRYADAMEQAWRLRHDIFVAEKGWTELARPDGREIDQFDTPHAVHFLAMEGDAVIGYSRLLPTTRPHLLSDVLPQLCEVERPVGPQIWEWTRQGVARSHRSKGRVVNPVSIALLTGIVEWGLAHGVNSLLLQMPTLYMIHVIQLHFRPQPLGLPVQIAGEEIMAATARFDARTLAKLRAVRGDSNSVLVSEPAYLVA

As usually defined, the EC50 is the concentration giving half of the maximal effect. Low values mean an effect from little substance, high ones a need for much substance. As to `CCCCCCCCCC(O)CC(=O)N[C@H]1CCOC1=O` (stereo partly shown) [3-OH-C12-HSL], at MmaR (MmaRDSM5686), the EC50 is 1.7 nM. In other words, the single-digit nanomolar range.
At MmaR (MmaRDSM5686) (purified natural signal added, mmaI promoter-mScarlet reporter, agonist), `CCCCCC/C=C\C[C@@H](O)CC(=O)NC1CCOC1=O` (stereo partly drawn) [3R-OH-5Z-C12:1-HSL, N-(3R-hydroxy-5-cis-dodecenoyl)-L-homoserine lactone] showed an EC50 of 0.2 nM. Further, on Mrad2831_5763 (MmaI), the “LC-MS/MS of culture extract after heterologous expression” value is “we observed a feature with the same m/z, retention time, and fragmentation pattern”. Further, at MmaI (Ga0373204_3345), the “LC-MS/MS, NMR of culture extract; deletion mutant control” value is given as “this feature was not present in a culture of an in-frame, unmarked deletion mutant”.
